In publication PMC5967867, “An NMDAR positive and negative allosteric modulator series share a binding site and are interconverted by methyl groups” (eLife, 2018):
Values joined by “and” are separate entries in the source; they are usually repeats but may differ in a detail not shown here. Equal values may be shown once. Read-outs that look alike come from different tables or passages of the source. Marks after values point to notes of the source that are not given here.

Legend:
GluN1/GluN2D NMDARs = GluN1/GluN2D NMDARs (Rattus norvegicus, UniProt P35439+Q62645); assay: Two-electrode voltage-clamp recordings, Xenopus laevis oocytes expressing GluN1/GluN2D; type: cell-based; conditions: for Emax: read-out: Maximal Degree of Modulation (% of control)
GluN1/GluN2D NMDARs, sequence (Q62645 28-1323, other chains not shown): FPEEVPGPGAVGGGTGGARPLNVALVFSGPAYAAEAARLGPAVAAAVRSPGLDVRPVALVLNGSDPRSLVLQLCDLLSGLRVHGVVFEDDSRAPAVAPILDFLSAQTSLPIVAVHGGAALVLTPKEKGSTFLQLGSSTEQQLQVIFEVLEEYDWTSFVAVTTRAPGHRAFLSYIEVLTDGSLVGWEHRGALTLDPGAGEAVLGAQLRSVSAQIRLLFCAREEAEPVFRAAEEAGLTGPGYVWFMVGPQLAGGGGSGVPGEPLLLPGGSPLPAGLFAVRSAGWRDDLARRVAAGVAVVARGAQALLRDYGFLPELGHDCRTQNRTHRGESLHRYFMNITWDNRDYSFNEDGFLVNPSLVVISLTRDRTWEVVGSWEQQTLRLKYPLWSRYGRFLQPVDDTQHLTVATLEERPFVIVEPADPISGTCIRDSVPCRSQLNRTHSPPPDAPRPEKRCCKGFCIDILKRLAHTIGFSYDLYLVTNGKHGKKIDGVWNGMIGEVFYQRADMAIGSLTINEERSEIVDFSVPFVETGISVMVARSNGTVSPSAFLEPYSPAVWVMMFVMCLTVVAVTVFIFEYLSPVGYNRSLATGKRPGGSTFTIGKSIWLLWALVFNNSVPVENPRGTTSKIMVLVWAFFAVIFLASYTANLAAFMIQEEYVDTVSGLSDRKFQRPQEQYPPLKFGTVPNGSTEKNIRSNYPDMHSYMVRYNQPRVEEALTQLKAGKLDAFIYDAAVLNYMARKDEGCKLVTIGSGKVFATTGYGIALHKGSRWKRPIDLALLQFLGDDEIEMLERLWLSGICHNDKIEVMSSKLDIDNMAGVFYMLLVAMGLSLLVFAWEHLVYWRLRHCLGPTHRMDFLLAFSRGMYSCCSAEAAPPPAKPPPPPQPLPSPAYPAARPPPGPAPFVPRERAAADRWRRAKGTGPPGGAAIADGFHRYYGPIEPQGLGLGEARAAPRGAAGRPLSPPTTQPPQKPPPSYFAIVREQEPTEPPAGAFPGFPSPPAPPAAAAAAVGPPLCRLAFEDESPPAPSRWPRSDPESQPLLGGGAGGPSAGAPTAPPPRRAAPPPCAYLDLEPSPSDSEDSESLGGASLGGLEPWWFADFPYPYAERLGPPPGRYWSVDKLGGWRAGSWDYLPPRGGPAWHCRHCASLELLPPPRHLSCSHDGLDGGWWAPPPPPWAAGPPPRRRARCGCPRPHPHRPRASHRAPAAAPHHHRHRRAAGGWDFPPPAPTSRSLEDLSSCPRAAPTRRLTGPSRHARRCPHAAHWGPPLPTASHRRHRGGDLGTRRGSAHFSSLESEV
Method: cDNAs for rat wild type NMDAR subunits GluN1-1a (GenBank U11418, U08261; hereafter GluN1 or GluN1a), GluN1-1b (U08263, hereafter GluN1b), GluN2A (D13211), GluN2B (U11419), Glu[…]), and Glu[…], modified as described in [Monyer et al., 1994]) were provided by Drs. S. Heinemann (Salk Institute), S. Nakanishi (Kyoto University), and P. Seeburg (University of Heidelberg). Site-directed mutagenesis was conducted using the QuikChange kit (Agilent Technologies, Santa Clara, CA) following the recommended protocol. DNA sequencing was used to verify all mutations. The amino acid numbering system started with the initiating methionine as residue number one. For expression in Xenopus laevis oocytes, cDNA constructs were linearized by restriction enzymes, and subsequently used to synthesize in vitro cRNAs following the manufacturer's protocol (mMessage mMachine, Ambion, ThermoFisher Scientific, Waltham, MA). […] All extracellular solutions were made from a solution containing (in mM) 90 NaCl, 1 KCl, 10 HEPES, 0.5 BaCl2, 0.01 EDTA (pH 7.4 with NaOH). Experiments were performed using an eight port Modular Valve Positioner (Hamilton Company, Reno, NV) and controlled by custom software (Easy Oocyte, Emory University, Atlanta, GA)to exchange solutions. Oocyte currents were recorded at a holding potential of -40 mV using a two-electrode voltage-clamp amplifier (OC-725B or OC-725C, Warner Instruments, Hamden, CT). […] Measurements are given as mean ± SEM unless otherwise indicated. […] EC50 and IC50 values and confidence intervals reported were calculated by averaging the log(EC50) or log(IC50) value, determining confidence intervals for mean log(EC50) or log(IC50), and converting back to units of molarity. Statistical significance evaluations (α set to 0.05) were performed using a one-way ANOVA with Dunnett's multiple comparison test, a paired t-test, or other appropriate tests as described.

GluN1/GluN2A NMDARs = GluN1/GluN2A NMDARs (Rattus norvegicus, UniProt P35439+Q00959); assay: Whole cell patch-clamp recordings, HEK293 cells expressing GluN1/GluN2A; type: cell-based; conditions: for modulation of high desensitized steady state responses / modulation of low desensitized steady state responses (drug/control): 10 µM, 100/30 µM glutamate/glycine; for modulation of high desensitized steady state responses / modulation of low desensitized steady state responses (drug/control) / Kd: HEK cells; for kon / koff: HEK293; for kon: read-out: association rate kon; for koff: read-out: dissociation rate koff; for Kd: calculated from association and dissociation rates, read-out: kinetically-determined affinity constant Kd
GluN1/GluN2A NMDARs, sequence (Q00959 23-1464, other chains not shown): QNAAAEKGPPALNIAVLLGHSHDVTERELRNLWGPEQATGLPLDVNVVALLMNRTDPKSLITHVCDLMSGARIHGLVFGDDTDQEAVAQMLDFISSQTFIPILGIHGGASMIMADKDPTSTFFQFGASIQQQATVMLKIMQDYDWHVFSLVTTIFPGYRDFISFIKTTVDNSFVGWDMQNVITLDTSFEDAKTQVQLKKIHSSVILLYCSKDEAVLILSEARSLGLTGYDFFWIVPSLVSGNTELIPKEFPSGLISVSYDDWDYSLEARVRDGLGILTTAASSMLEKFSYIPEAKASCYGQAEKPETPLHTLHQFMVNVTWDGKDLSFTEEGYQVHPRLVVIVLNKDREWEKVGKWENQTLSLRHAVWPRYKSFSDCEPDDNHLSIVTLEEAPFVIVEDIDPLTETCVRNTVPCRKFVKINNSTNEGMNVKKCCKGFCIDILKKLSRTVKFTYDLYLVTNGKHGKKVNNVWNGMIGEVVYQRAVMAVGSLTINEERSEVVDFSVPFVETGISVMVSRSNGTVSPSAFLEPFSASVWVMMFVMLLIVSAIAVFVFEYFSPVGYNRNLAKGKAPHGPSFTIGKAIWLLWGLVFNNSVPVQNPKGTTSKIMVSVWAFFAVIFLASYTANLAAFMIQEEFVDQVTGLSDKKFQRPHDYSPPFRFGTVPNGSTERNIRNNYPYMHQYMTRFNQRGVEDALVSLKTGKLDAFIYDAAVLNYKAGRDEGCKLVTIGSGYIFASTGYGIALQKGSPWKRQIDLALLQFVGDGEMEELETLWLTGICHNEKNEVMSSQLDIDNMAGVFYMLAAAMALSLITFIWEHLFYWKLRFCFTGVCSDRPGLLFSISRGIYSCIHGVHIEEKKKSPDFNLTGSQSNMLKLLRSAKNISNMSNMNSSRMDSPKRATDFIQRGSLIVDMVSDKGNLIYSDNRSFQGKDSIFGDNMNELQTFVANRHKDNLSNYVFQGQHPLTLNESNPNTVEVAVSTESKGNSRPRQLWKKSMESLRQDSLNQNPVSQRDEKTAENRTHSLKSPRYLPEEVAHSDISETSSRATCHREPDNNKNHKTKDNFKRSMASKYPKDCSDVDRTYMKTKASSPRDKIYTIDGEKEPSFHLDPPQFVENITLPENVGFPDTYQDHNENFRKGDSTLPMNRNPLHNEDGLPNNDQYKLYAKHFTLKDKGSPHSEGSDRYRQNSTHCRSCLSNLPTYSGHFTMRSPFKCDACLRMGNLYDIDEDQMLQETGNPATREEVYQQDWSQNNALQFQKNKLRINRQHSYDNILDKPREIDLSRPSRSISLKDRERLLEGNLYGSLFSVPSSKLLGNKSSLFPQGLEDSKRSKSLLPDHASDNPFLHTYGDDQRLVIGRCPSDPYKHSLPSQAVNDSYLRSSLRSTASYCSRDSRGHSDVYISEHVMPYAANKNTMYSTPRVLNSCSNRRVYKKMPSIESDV
Method: We studied NMDARs expressed in HEK293 cells to investigate the time course of modulator action. […] These modulators were tested on GluN1/GluN2A and GluN1/GluN2D to see whether there were differences in modulation given the distinct properties of these NMDAR subtypes. […] From these we calculated the kinetically-determined affinity constant (Kd), which we found to be similar to the EC50 values determined from concentration-response experiments. […] Complex actions of EU1794-4 and EU1794-27 were observed, with two temporally-distinct phases of modulation evident for the association of these modulators (Figure 4A). Both compounds produced a rapid inhibition followed by a slowly developing potentiating phase for EU1794-27. The rapid association rate determined during the rapid inhibition produced by EU1794-4 was approximately three times faster than EU1794-2; similarly, the dissociation rate was also faster for EU1794-4 than EU1794-2. Quantitative analysis of the slower phases was challenging due to its lower signal-to-noise ratio. Likewise, the rapid inhibitory phase was also difficult to measure for EU1794-27 because its rapid time course was convolved with the potentiation time course. Additionally, the depotentiation time course is preceded by a transient enhancement of the current response, followed by a relaxation to the pre-modulation level. The time course for potentiation and depotentiation were best fit with an exponential function summed with an additional linear component after the rapid phase subsided. […] All modulatory effects were independent of voltage (Figure 4—figure supplement 1A). The steady state modulator responses from HEK293 cells approximately match the concentration-response relationship determined from TEVC recordings from X. laevis oocytes (Figure 4A, inset graphs). The time-course of modulator binding of EU1794-2, EU1794-4 and EU1794-27 was also determined for GluN1/GluN2A (Figure 4C,D). Higher Kd values (lower potency) were determined for each molecule at GluN1/GluN2A as compared to GluN1/GluN2D that parallel EC50 values determined using X. laevis oocytes. Similar to oocyte data, robust inhibition was produced by EU1794-2, modest inhibition was produced by EU1794-4, and transient inhibition and recovery was observed by the application of EU1794-27. […] The low desensitized group (40% average desensitization) was modulated by 107%, whereas the high desensitized group (10% average desensitization) was modulated to 247% of control by 10 µM EU1794-27 (Figure 4C and Figure 4—figure supplement 1F).
cDNAs for rat wild type NMDAR subunits GluN1-1a (GenBank U11418, U08261; hereafter GluN1 or GluN1a), GluN1-1b (U08263, hereafter GluN1b), GluN2A (D13211), GluN2B (U11419), GluN2C (M91563), and GluN2D (L31611, modified as described in [Monyer et al., 1994]) were provided by Drs. S. Heinemann (Salk Institute), S. Nakanishi (Kyoto University), and P. Seeburg (University of Heidelberg). Site-directed mutagenesis was conducted using the QuikChange kit (Agilent Technologies, Santa Clara, CA) following the recommended protocol. DNA sequencing was used to verify all mutations. The amino acid numbering system started with the initiating methionine as residue number one. For expression in Xenopus laevis oocytes, cDNA constructs were linearized by restriction enzymes, and subsequently used to synthesize in vitro cRNAs following the manufacturer’s protocol (mMessage mMachine, Ambion, ThermoFisher Scientific, Waltham, MA).
HEK293 cells (CRL-1573, ATCC, Manassas, VA) were maintained in a tissue culture room solely reserved for their culturing and transfected using a CaPO4 protocol to express the diheteromeric NMDARs as previously described ([Hansen et al., 2013]). Cell lines were obtained directly from the supplier, were expanded, frozen and kept in liquid nitrogen in a dewar. Mycoplasma testing was not performed. cDNA ratios for transfection were 1:1:1 (GluN2D) or 1:1:5 (GluN2A) for GluN1:GluN2:GFP. […]

[1] = glutamate/glycine 100/30 µM, no second modulator (+EU1794-27 0 µM), read-out: IC50 (µM) [conf. int.]
[2] = saturating glutamate/glycine 100/30 µM, mean [95% CI], read-out: EC50 (µM) [conf. int.]
[3] = saturating glutamate/glycine 100/30 µM, mean ± SEM
[4] = sub-saturating glutamate/glycine 0.6/0.2 µM, read-out: EC50 (µM) [conf. int.]
[5] = sub-saturating glutamate/glycine 0.6/0.2 µM
[6] = concentration dependence of linear component of time course

Q: How did the IC50 (GluN1/GluN2D NMDARs; +EU1794-27 3 µM, glutamate/glycine 100/30 µM, read-out: EU1794-2 IC50 (µM) [conf. int.]) turn out when CCOC(=O)c1c(NC(=O)CC2SC(=N)NC2=O)sc2c1CCC(C)C2 (stereo not drawn) [EU1794-2, ethyl 2-(2-(2-imino-4-oxothiazolidin-5-yl)acetamido)-6-methyl-4,5,6,7-tetrahydrobenzo[b]thiophene-3-carboxylate] was run?
A: The IC50 was 1.4 µM.

Q: What about the IC50 (GluN1/GluN2D NMDARs; +EU1794-27 10 µM, glutamate/glycine 100/30 µM, read-out: EU1794-2 IC50 (µM) [conf. int.]) of the same compound?
A: The IC50 was 2.7 µM.

Q: What about the IC50 (GluN1/GluN2D NMDARs; +EU1794-27 20 µM, glutamate/glycine 100/30 µM, read-out: EU1794-2 IC50 (µM) [conf. int.]) of the same compound?
A: The IC50 was 7.3 µM.

Q: What about the IC50 (GluN1/GluN2D NMDARs; [1]) of the same compound?
A: The IC50 was 0.2 µM.

Q: What about the EC50 (GluN1/GluN2D NMDARs; [2]) of the same compound?
A: Its EC50 is 0.2 µM.

Q: And the Emax (GluN1/GluN2D NMDARs; [3])?
A: Its Emax is 14%.

Q: And the EC50 (GluN1/GluN2D NMDARs; [4])?
A: The EC50 was 0.32 µM.

Q: And the Emax (GluN1/GluN2D NMDARs; [5])?
A: Its Emax is 24%.

Q: What about the “modulation of high desensitized steady state responses” value (GluN1/GluN2A NMDARs) of the same compound?
A: The value was 32 % of control.

Q: And the “modulation of low desensitized steady state responses (drug/control)” value (“modulation … (drug/control)” below) (GluN1/GluN2A NMDARs)?
A: Its value is 13 % of control.

Q: And the kon (GluN1/GluN2A NMDARs)?
A: Its kon is 390000 M⁻¹ s⁻¹.

Q: And the koff (GluN1/GluN2A NMDARs)?
A: The koff was 0.938 s⁻¹.

Q: What about the Kd (GluN1/GluN2A NMDARs) of the same compound?
A: Its Kd is 2410 nM.

Q: CCOC(=O)c1c(NC(=O)CC2SC(=N)NC2=O)sc2c1CCCC2 (stereo not drawn) [EU1794-4, ethyl 2-(2-(2-imino-4-oxothiazolidin-5-yl)acetamido)-4,5,6,7-tetrahydrobenzo[b]thiophene-3-carboxylate] was tested. Which “Fold Difference (glutamate EC50)” value (GluN1/GluN2D NMDARs; control vs 10 µM EU1794-4) did it give?
A: Its value is 3.9^†.

Q: What about the “Fold Difference (glycine EC50)” value (GluN1/GluN2D NMDARs; control vs 10 µM EU1794-4) of the same compound?
A: The value was 8.9^†.

Q: And the IC50 (GluN1/GluN2D NMDARs; [1])?
A: Its IC50 is 0.36 µM.

Q: And the EC50 (GluN1/GluN2D NMDARs; [2])?
A: Its EC50 is 0.36 µM.

Q: And the Emax (GluN1/GluN2D NMDARs; [3])?
A: Its Emax is 51%.

Q: What about the EC50 (GluN1/GluN2D NMDARs; sub-saturating glutamate/glycine 0.3/0.09 µM, read-out: EC50 (µM) [conf. int.]) of the same compound?
A: Its EC50 is 14 µM.

Q: What about the Emax (GluN1/GluN2D NMDARs; sub-saturating glutamate/glycine 0.3/0.09 µM) of the same compound?
A: The Emax was 540%.

Q: And the “modulation … (drug/control)” value (GluN1/GluN2A NMDARs)?
A: Its value is 47 % of control.

Q: And the kon (GluN1/GluN2A NMDARs)?
A: The kon was 502000 M⁻¹ s⁻¹.

Q: What about the koff (GluN1/GluN2A NMDARs) of the same compound?
A: The koff was 3.94 s⁻¹.

Q: And the Kd (GluN1/GluN2A NMDARs)?
A: Its Kd is 7850 nM.

Q: CC(C)(C)OC(=O)c1c(NC(=O)CC2SC(=N)NC2=O)sc2c1CCCC2 (stereo not drawn) [EU1794-27, tert-butyl 2-(2-(2-imino-4-oxothiazolidin-5-yl)acetamido)-4,5,6,7-tetrahydrobenzo[b]thiophene-3-carboxylate] was tested. Which EC50 (GluN1/GluN2D NMDARs; +EU1794-2 1 µM, glutamate/glycine 100/30 µM, read-out: EU1794-27 EC50 (µM) [conf. int.]) did it give?
A: Its EC50 is 7.5 µM.

Q: What about the EC50 (GluN1/GluN2D NMDARs; +EU1794-2 3 µM, glutamate/glycine 100/30 µM, read-out: EU1794-27 EC50 (µM) [conf. int.]) of the same compound?
A: Its EC50 is 7.8 µM.

Q: And the “Fold Difference (glutamate EC50)” value (GluN1/GluN2D NMDARs; control vs 10 µM EU1794-27)?
A: The value was 5.3^†.

Q: What about the “Fold Difference (glycine EC50)” value (GluN1/GluN2D NMDARs; control vs 10 µM EU1794-27) of the same compound?
A: Its value is 4.9^†.

Q: What about the EC50 (GluN1/GluN2D NMDARs; [2]) of the same compound?
A: Its EC50 is 2.4 µM.

Q: And the Emax (GluN1/GluN2D NMDARs; [3])?
A: The Emax was 250%.

Q: And the EC50 (GluN1/GluN2D NMDARs; [4])?
A: Its EC50 is 8.3 µM.

Q: And the Emax (GluN1/GluN2D NMDARs; [5])?
A: The Emax was 580%.

Q: And the “modulation of high desensitized steady state responses” value (GluN1/GluN2A NMDARs)?
A: The value was 247 % of control and 247 ± 31 % of control.

Q: What about the “modulation … (drug/control)” value (GluN1/GluN2A NMDARs) of the same compound?
A: Its value is 107 % of control and 107 ± 16 % of control.

Q: And the kon (GluN1/GluN2A NMDARs)?
A: The kon was 59200 M⁻¹ s⁻¹.

Q: And the koff (GluN1/GluN2A NMDARs)?
A: Its koff is 0.426 s⁻¹.

Q: And the Kd (GluN1/GluN2A NMDARs)?
A: Its Kd is 7200 nM.

Q: What about the “association linear component slope mon” value (GluN1/GluN2A NMDARs; [6]) of the same compound?
A: Its value is −0.33 pA/(s*µM).

Q: What about the “dissociation linear component slope moff” value (GluN1/GluN2A NMDARs; [6]) of the same compound?
A: The value was 0.16 pA/(s*µM).
